Measured values from the NIST ThermoML archive (doi:10.1021/je060271a).
Values joined by “and” are separate entries in the source; they are usually repeats but may differ in a detail not shown here. Equal values may be shown once.

Conditions: Liquid, Vibrating tube method

CCCCCCC(=O)OCC(COC(=O)CCCCCC)(COC(=O)CCCCCC)COC(=O)CCCCCC [pentaerythritol tetraheptanoate]
Conditions | mass density
323.14 K, 25915 kPa | 972.2 kg/m3
323.14 K, 25942 kPa | 972.3 kg/m3
323.14 K, 25974 kPa | 972.2 kg/m3
323.14 K, 26002 kPa | 972.3 kg/m3
323.14 K, 26088 kPa | 972.3 kg/m3
323.14 K, 26774 kPa | 972.7 kg/m3
323.14 K, 26808 kPa | 972.6 kg/m3
323.14 K, 26837 kPa | 972.6 kg/m3
323.14 K, 26866 kPa | 972.9 kg/m3
323.14 K, 27024 kPa | 972.9 kg/m3
323.14 K, 27055 kPa | 972.9 kg/m3
323.14 K, 27085 kPa | 972.9 kg/m3
323.14 K, 27114 kPa | 973 kg/m3
323.14 K, 27150 kPa | 973 kg/m3
323.14 K, 27179 kPa | 972.9 kg/m3
323.14 K, 27214 kPa | 973 kg/m3
323.14 K, 27244 kPa | 973 kg/m3
323.14 K, 27274 kPa | 973.1 kg/m3
323.14 K, 27565 kPa | 973.2 kg/m3
323.14 K, 27596 kPa | 973.2 kg/m3
323.14 K, 27731 kPa | 973.3 kg/m3
323.14 K, 27762 kPa | 973.3 kg/m3
323.14 K, 27825 kPa | 973.3 kg/m3
323.14 K, 27863 kPa | 973.4 kg/m3
323.14 K, 27895 kPa | 973.4 kg/m3
323.14 K, 28027 kPa | 973.5 kg/m3
323.14 K, 28373 kPa | 973.8 kg/m3
323.14 K, 28406 kPa | 973.7 kg/m3
323.14 K, 28439 kPa | 973.7 kg/m3
323.14 K, 28757 kPa | 973.8 kg/m3
323.14 K, 28791 kPa | 973.9 kg/m3
323.14 K, 28831 kPa | 973.9 kg/m3
323.14 K, 28904 kPa | 973.9 kg/m3
323.14 K, 28938 kPa | 974 kg/m3
323.14 K, 28973 kPa | 974.1 kg/m3
323.14 K, 29048 kPa | 974.1 kg/m3
323.14 K, 29083 kPa | 974.1 kg/m3
323.14 K, 29124 kPa | 974.1 kg/m3
323.14 K, 29158 kPa | 974.1 kg/m3
323.14 K, 29193 kPa | 974.1 kg/m3
323.14 K, 29227 kPa | 974.2 kg/m3
323.14 K, 29270 kPa | 974.2 kg/m3
323.14 K, 29304 kPa | 974.3 kg/m3
323.14 K, 29346 kPa | 974.3 kg/m3
323.14 K, 29381 kPa | 974.2 kg/m3
323.14 K, 29416 kPa | 974.2 kg/m3
323.14 K, 29451 kPa | 974.2 kg/m3
323.14 K, 29494 kPa | 974.4 kg/m3
323.14 K, 29529 kPa | 974.4 kg/m3
323.14 K, 30197 kPa | 974.6 kg/m3
323.14 K, 30480 kPa | 974.8 kg/m3
323.14 K, 30518 kPa | 975 kg/m3
323.14 K, 30556 kPa | 974.9 kg/m3
323.14 K, 30596 kPa | 974.9 kg/m3
323.14 K, 30642 kPa | 975 kg/m3
323.14 K, 30681 kPa | 975.1 kg/m3
323.14 K, 30728 kPa | 975.2 kg/m3
323.14 K, 30768 kPa | 975 kg/m3
323.14 K, 30807 kPa | 975.1 kg/m3
323.14 K, 30846 kPa | 975 kg/m3
323.14 K, 30893 kPa | 975.2 kg/m3
323.14 K, 30933 kPa | 975.1 kg/m3
323.14 K, 30973 kPa | 975.1 kg/m3
323.14 K, 31020 kPa | 975.2 kg/m3
323.14 K, 31060 kPa | 975.2 kg/m3
323.14 K, 31108 kPa | 975.2 kg/m3
323.14 K, 31148 kPa | 975.2 kg/m3
323.14 K, 31188 kPa | 975.3 kg/m3
323.14 K, 31237 kPa | 975.2 kg/m3
323.14 K, 31277 kPa | 975.4 kg/m3
323.14 K, 31319 kPa | 975.3 kg/m3
323.14 K, 31359 kPa | 975.4 kg/m3
323.14 K, 31408 kPa | 975.4 kg/m3
323.14 K, 31448 kPa | 975.4 kg/m3
323.14 K, 31497 kPa | 975.6 kg/m3
323.14 K, 31539 kPa | 975.5 kg/m3
323.14 K, 31580 kPa | 975.4 kg/m3
323.14 K, 31621 kPa | 975.5 kg/m3
323.14 K, 31671 kPa | 975.6 kg/m3
323.14 K, 31712 kPa | 975.5 kg/m3
323.14 K, 31762 kPa | 975.8 kg/m3
323.14 K, 31804 kPa | 975.8 kg/m3
323.14 K, 31847 kPa | 975.7 kg/m3
323.14 K, 31898 kPa | 975.6 kg/m3
323.14 K, 31940 kPa | 975.7 kg/m3
323.14 K, 31982 kPa | 975.8 kg/m3
323.14 K, 32450 kPa | 976.1 kg/m3
323.14 K, 32496 kPa | 976 kg/m3
323.14 K, 32540 kPa | 976 kg/m3
323.14 K, 32584 kPa | 976.2 kg/m3
323.14 K, 32637 kPa | 976.1 kg/m3
323.14 K, 32681 kPa | 976.1 kg/m3
323.14 K, 33266 kPa | 976.4 kg/m3
323.14 K, 33360 kPa | 976.5 kg/m3
323.14 K, 33416 kPa | 976.4 kg/m3
323.14 K, 34625 kPa | 977.3 kg/m3
323.15 K, 99.4 kPa | 955.6 kg/m3
323.15 K, 99.5 kPa | 955.5 kg/m3 and 955.6 kg/m3 and 955.7 kg/m3
323.15 K, 99.7 kPa | 955.7 kg/m3 and 955.6 kg/m3
323.15 K, 99.8 kPa | 955.7 kg/m3
323.15 K, 99.9 kPa | 955.7 kg/m3 and 955.8 kg/m3 and 955.6 kg/m3
323.15 K, 100 kPa | 955.7 kg/m3 and 955.8 kg/m3 and 955.6 kg/m3
323.15 K, 100.2 kPa | 955.7 kg/m3 [middle of 4 runs]
323.15 K, 100.4 kPa | 955.7 kg/m3 and 955.8 kg/m3 and 955.6 kg/m3
323.15 K, 100.5 kPa | 955.6 kg/m3 and 955.7 kg/m3
323.15 K, 100.6 kPa | 955.6 kg/m3 and 955.7 kg/m3 and 955.8 kg/m3
323.15 K, 100.7 kPa | 955.8 kg/m3 and 955.7 kg/m3 and 955.5 kg/m3
323.15 K, 100.9 kPa | 955.7 kg/m3
323.15 K, 101.1 kPa | 955.6 kg/m3 and 955.7 kg/m3
323.15 K, 101.3 kPa | 955.6 kg/m3
323.15 K, 101.5 kPa | 955.8 kg/m3 and 955.7 kg/m3
323.15 K, 101.6 kPa | 955.7 kg/m3
